Assay results: patent US20170266257A1, “METHODS OF TREATING TRAUMATIC BRAIN INJURY” (OXEIA BIOPHARMACEUTICALS, INC., priority 2014, published 2017)
pKi: −log10 of the molar value.

Experiments:
GHS-R = GHS-R (Homo sapiens, UniProt Q92847); assay: cell based assay of GHS-R antagonist activity (Table 4)
ischemic brain injury = settings: after ischemic brain injury; cited from earlier work
[1] = tested on: rat model of Parkinson's disease; settings: cited from earlier work

Chain of GHS-R (Q92847 whole entry): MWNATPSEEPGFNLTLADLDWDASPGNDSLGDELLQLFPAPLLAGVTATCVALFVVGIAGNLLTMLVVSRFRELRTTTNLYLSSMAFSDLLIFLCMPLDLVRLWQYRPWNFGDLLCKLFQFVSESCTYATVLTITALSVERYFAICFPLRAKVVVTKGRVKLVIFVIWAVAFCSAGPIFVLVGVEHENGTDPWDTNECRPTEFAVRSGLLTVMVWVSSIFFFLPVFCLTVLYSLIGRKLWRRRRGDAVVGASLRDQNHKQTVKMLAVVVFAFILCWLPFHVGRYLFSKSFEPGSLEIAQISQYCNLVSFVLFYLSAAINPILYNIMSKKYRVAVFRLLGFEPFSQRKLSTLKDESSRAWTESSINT

Row | Compound | pKi (GHS-R) | neuroprotection (ischemic brain injury) | motor function [1]
1 | CCN(CC)CCCS(=O)(=O)N[C@H](CCc1ccccc1)c1nc(-c2cncn2C)n[nH]1 [Compound 135] | > 7.00 |  | 
2 | C=CC[C@]12CCCN1C(=O)CNC2=O [NNZ-2591, cyclo-L-glycyl-L-2-allylproline] |  | neuroprotective | improves motor function
3 | 3-Diethylamino-propane-1-sulfonic acid {(R)-1-[3-(5-bromo-pyridin-3-yl)-[1,2,4]oxadiazol-5-yl]-phenyl-propyl}-amide [Compound 103] | 6.30 to 7.00 |  | 
